Reference: patent US20110045101A1, “FUNGICIDAL SUBSTITUTED AZOLES” (E.I. Du Pont De Nemours and Company, priority 2009, published 2011)
Marks after values point to notes of the source that are not given here.

Experiments:
Format in all cases: in vivo
Settings in all cases: 100 = 100% disease control
[1] = tested on: Puccinia recondita f. sp. tritici; test: Test I: wheat leaf rust on wheat seedlings, sprayed the day before inoculation, visual disease rating
In short: (§1)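 Ratings reflect a 200 ppm spray (≈500 g/ha) unless marked as 40 ppm. Plants were sprayed to run-off. The spray suspension was acetone/purified water 50/50 containing 250 ppm Trem 014, after first dissolving compound in acetone at 3% of final volume.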

[2] = tested on: Erysiphe graminis f. sp. tritici; test: Test J: wheat powdery mildew on wheat seedlings, sprayed the day before inoculation, visual disease rating
In short: as §1

[3] = tested on: Puccinia recondita f. sp. tritici; test: Test H: wheat leaf rust, test suspension sprayed after inoculation of wheat seedlings, visual disease rating
In short: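 Wheat seedlings inoculated with P. recondita spores, held 24 h saturated at 20 °C, then 2 days in growth chamber at 20 °C; compound suspension (acetone/water with Trem 014) sprayed to run-off afterwards. Rated visually; 200 ppm (≈500 g/ha) unless marked *, which denotes 40 ppm.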

Septoria nodorum = test: Test F: wheat glume blotch on wheat seedlings, sprayed the day before inoculation, visual disease rating
In short: as §1

Alternaria solani = test: Test D: tomato early blight, sprayed the day before inoculation, visual disease rating
In short: as §1

Septoria tritici = test: Test G: wheat leaf blotch on wheat seedlings, sprayed the day before inoculation, visual disease rating
In short: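 Visual disease ratings taken 19 days after transfer to a 20° C growth chamber, following 48 h in saturated atmosphere at 24° C. Seedlings had been sprayed to run-off one day before spore inoculation. Dose 200 ppm, or 40 ppm where starred.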

Botrytis cinerea = test: Test C: tomato Botrytis on tomato seedlings, sprayed the day before inoculation, visual disease rating
In short: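 Disease scored by eye on tomato seedlings inoculated with Botrytis cinerea a day after treatment. Treatment was a run-off spray at 200 ppm (equivalent to 500 g/ha), or 40 ppm where marked, in acetone/water carrying 250 ppm Trem 014.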

[4] = 200 ppm, 0 = no control relative to controls
[5] = 40 ppm (marked *), 0 = no control

Question: How did the “Test I disease control rating” value [1, 4] turn out when `Fc1cc(-n2c(Cl)nc(Cl)c2-c2cccc(Br)n2)ccc1Cl` [compound 433] was run?
Answer: 0%

Question: And the “Test J disease control rating” value [2, 4]?
Answer: 0%

Question: And the “Test H disease control rating” value [3, 4]?
Answer: 0%

Question: And the “Test F disease control rating” value (Septoria nodorum; [4])?
Answer: 0%

Question: And the “Test D disease control rating” value (Alternaria solani; [4])?
Answer: 0%

Question: What about the “Test G disease control rating” value (Septoria tritici; [4]) of the same molecule?
Answer: 92%

Question: What about the “Test C disease control rating” value (Botrytis cinerea; [4]) of the same molecule?
Answer: 50%

Question: Which results are given for “5-[4-chloro-5-(2,6-difluoro-4-methoxyphenyl)-1H-imidazol-1-yl]-2-(trifluoromethyl)pyridine [Example 34]”?
Answer: Test I disease control rating ([1]; 40 ppm (marked *)): 100* %; Test J disease control rating ([2]; 40 ppm (marked *)): 100* %; Test H disease control rating ([3]; 40 ppm (marked *)): 91* %; Test F disease control rating (Septoria nodorum; 40 ppm (marked *)): 99* %; Test D disease control rating (Alternaria solani; 40 ppm (marked *)): 100* %; Test G disease control rating (Septoria tritici; 40 ppm (marked *)): 90* %; Test C disease control rating (Botrytis cinerea; 40 ppm (marked *)): 99* %

Question: What does the source list for `COc1cc(F)c(-c2c(Cl)nc(Cl)n2-c2cccc(OC(F)F)c2)c(F)c1` [compound 565]?
Answer: Test I disease control rating [1, 4]: 100%; Test J disease control rating [2, 4]: 100%; Test H disease control rating [3, 4]: 97%; Test F disease control rating (Septoria nodorum; [4]): 100%; Test D disease control rating (Alternaria solani; [4]): 100%; Test G disease control rating (Septoria tritici; [4]): 96%; Test C disease control rating (Botrytis cinerea; [4]): 100%

Question: Which “Test I disease control rating” value [1, 4] does the source give for `COc1cc(F)c(-c2c(Cl)nc(Cl)n2-c2cccnc2C)c(F)c1` [compound 675] here?
Answer: 100%

Question: And the “Test J disease control rating” value [2, 4]?
Answer: 100%

Question: What about the “Test H disease control rating” value [3, 4] of the same molecule?
Answer: 100%

Question: And the “Test F disease control rating” value (Septoria nodorum; [4])?
Answer: 99%

Question: And the “Test D disease control rating” value (Alternaria solani; [4])?
Answer: 100%

Question: What about the “Test G disease control rating” value (Septoria tritici; [4]) of the same molecule?
Answer: 98%

Question: And the “Test C disease control rating” value (Botrytis cinerea; [4])?
Answer: 100%

Question: Which results are given for `Cc1nc(Br)c(-c2c(F)cccc2F)n1-c1ccc(Cl)c2ccccc12` [compound 337]?
Answer: Test I disease control rating [1, 5]: 0* %; Test J disease control rating [2, 5]: 0* %; Test H disease control rating [3, 5]: 0* %; Test F disease control rating (Septoria nodorum; [5]): 0* %; Test D disease control rating (Alternaria solani; [5]): 0* %; Test G disease control rating (Septoria tritici; [5]): 23* %; Test C disease control rating (Botrytis cinerea; [5]): 19* %

Question: Which “Test I disease control rating” value [1, 4] does the source give for `COc1ccc(F)c(-c2c(Cl)nc(Br)n2-c2ccc(C#N)cc2)c1F` [compound 596] here?
Answer: 74%

Question: And the “Test J disease control rating” value [2, 4]?
Answer: 97%

Question: What about the “Test H disease control rating” value [3, 4] of the same molecule?
Answer: 0%

Question: And the “Test F disease control rating” value (Septoria nodorum; [4])?
Answer: 0%

Question: What about the “Test D disease control rating” value (Alternaria solani; [4]) of the same molecule?
Answer: 73%

Question: And the “Test G disease control rating” value (Septoria tritici; [4])?
Answer: 98%

Question: And the “Test C disease control rating” value (Botrytis cinerea; [4])?
Answer: 94%

Question: How did the “Test I disease control rating” value [1, 4] turn out when `Fc1cccc(F)c1-c1c(Cl)nc(Cl)n1-c1cccnc1Cl` [compound 617] was run?
Answer: 100%

Question: What about the “Test J disease control rating” value [2, 4] of the same molecule?
Answer: 99%

Question: And the “Test H disease control rating” value [3, 4]?
Answer: 100%

Question: And the “Test F disease control rating” value (Septoria nodorum; [4])?
Answer: 0%

Question: And the “Test D disease control rating” value (Alternaria solani; [4])?
Answer: 99%

Question: And the “Test G disease control rating” value (Septoria tritici; [4])?
Answer: 100%

Question: What about the “Test C disease control rating” value (Botrytis cinerea; [4]) of the same molecule?
Answer: 99%

Question: `COc1ccc(F)c(-c2c(C)nc(Cl)n2-c2ccc(Cl)nc2)c1F` [compound 733] was tested. Which “Test I disease control rating” value [1, 4] did it give?
Answer: 100%

Question: What about the “Test J disease control rating” value [2, 4] of the same molecule?
Answer: 100%

Question: What about the “Test H disease control rating” value [3, 4] of the same molecule?
Answer: 41%

Question: And the “Test F disease control rating” value (Septoria nodorum; [4])?
Answer: 100%

Question: What about the “Test D disease control rating” value (Alternaria solani; [4]) of the same molecule?
Answer: 100%

Question: And the “Test G disease control rating” value (Septoria tritici; [4])?
Answer: 100%

Question: What about the “Test C disease control rating” value (Botrytis cinerea; [4]) of the same molecule?
Answer: 100%

Question: Which results are given for `COc1cc(F)c(-c2c(Cl)nc(Cl)n2-c2ccc(Cl)nc2Cl)c(F)c1` [compound 674]?
Answer: Test I disease control rating [1, 4]: 100%; Test J disease control rating [2, 4]: 94%; Test H disease control rating [3, 4]: 98%; Test F disease control rating (Septoria nodorum; [4]): 98%; Test D disease control rating (Alternaria solani; [4]): 93%; Test G disease control rating (Septoria tritici; [4]): 99%; Test C disease control rating (Botrytis cinerea; [4]): 99%

Question: With `COc1cc(F)c(-n2cnc(C)c2-c2ccc(C)cc2)c(F)c1` [compound 560] as the molecule, how does the “Test I disease control rating” value ([1]; 40 ppm (marked *)) read?
Answer: 79* %

Question: And the “Test J disease control rating” value ([2]; 40 ppm (marked *))?
Answer: 93* %

Question: What about the “Test H disease control rating” value ([3]; 40 ppm (marked *)) of the same molecule?
Answer: 33* %

Question: What about the “Test F disease control rating” value (Septoria nodorum; 40 ppm (marked *)) of the same molecule?
Answer: 0* %

Question: What about the “Test D disease control rating” value (Alternaria solani; 40 ppm (marked *)) of the same molecule?
Answer: 0* %

Question: What about the “Test G disease control rating” value (Septoria tritici; 40 ppm (marked *)) of the same molecule?
Answer: 65* %

Question: And the “Test C disease control rating” value (Botrytis cinerea; 40 ppm (marked *))?
Answer: 99* %

Question: With `Fc1cccc(F)c1-c1c(Cl)nc(CCl)n1-c1ccc2c(c1)OCCO2` [compound 469] as the molecule, how does the “Test I disease control rating” value ([1]; 40 ppm (marked *)) read?
Answer: 81* %

Question: And the “Test J disease control rating” value ([2]; 40 ppm (marked *))?
Answer: 0* %

Question: And the “Test H disease control rating” value ([3]; 40 ppm (marked *))?
Answer: 0* %

Question: And the “Test F disease control rating” value (Septoria nodorum; 40 ppm (marked *))?
Answer: 0* %

Question: And the “Test D disease control rating” value (Alternaria solani; 40 ppm (marked *))?
Answer: 0* %

Question: What about the “Test G disease control rating” value (Septoria tritici; 40 ppm (marked *)) of the same molecule?
Answer: 79* %

Question: And the “Test C disease control rating” value (Botrytis cinerea; 40 ppm (marked *))?
Answer: 65* %

Question: `COc1ccc(-c2c(Cl)nc(Cl)n2-c2ccc(Cl)cc2Cl)cc1` [compound 698] was tested. Which “Test I disease control rating” value [1, 4] did it give?
Answer: 83%

Question: And the “Test J disease control rating” value [2, 4]?
Answer: 56%

Question: And the “Test H disease control rating” value [3, 4]?
Answer: 0%

Question: And the “Test F disease control rating” value (Septoria nodorum; [4])?
Answer: 0%

Question: And the “Test D disease control rating” value (Alternaria solani; [4])?
Answer: 0%

Question: What about the “Test G disease control rating” value (Septoria tritici; [4]) of the same molecule?
Answer: 99%

Question: What about the “Test C disease control rating” value (Botrytis cinerea; [4]) of the same molecule?
Answer: 99%

Question: “3-[4-[4-chloro-2-methyl-1-(4-methylphenyl)-1H-imidazol-5-yl]-3,5-difluorophenoxy]-N-methyl-1-propanamide hydrochloride [Compound 734]” was tested. Which “Test I disease control rating” value [1, 4] did it give?
Answer: 100%

Question: And the “Test J disease control rating” value [2, 4]?
Answer: 95%

Question: And the “Test H disease control rating” value [3, 4]?
Answer: 41%

Question: And the “Test F disease control rating” value (Septoria nodorum; [4])?
Answer: 99%

Question: And the “Test D disease control rating” value (Alternaria solani; [4])?
Answer: 99%

Question: What about the “Test G disease control rating” value (Septoria tritici; [4]) of the same molecule?
Answer: 99%

Question: What about the “Test C disease control rating” value (Botrytis cinerea; [4]) of the same molecule?
Answer: 100%

Question: For `Fc1cc(-n2cnc(Br)c2-c2c(F)ccc(F)c2F)ccc1Cl` [compound 342], which “Test I disease control rating” value [1, 4] is on record?
Answer: 98%

Question: And the “Test J disease control rating” value [2, 4]?
Answer: 99%

Question: And the “Test H disease control rating” value [3, 4]?
Answer: 0%

Question: And the “Test F disease control rating” value (Septoria nodorum; [4])?
Answer: 0%

Question: What about the “Test D disease control rating” value (Alternaria solani; [4]) of the same molecule?
Answer: 99%

Question: What about the “Test G disease control rating” value (Septoria tritici; [4]) of the same molecule?
Answer: 95%

Question: What about the “Test C disease control rating” value (Botrytis cinerea; [4]) of the same molecule?
Answer: 100%

Question: `COc1cc(F)c(-c2c(Cl)nc(Br)n2-c2ccc(OC(F)F)cc2)c(F)c1` [compound 546] was tested. Which “Test I disease control rating” value [1, 4] did it give?
Answer: 100%

Question: And the “Test J disease control rating” value [2, 4]?
Answer: 100%

Question: And the “Test H disease control rating” value [3, 4]?
Answer: 0%

Question: What about the “Test F disease control rating” value (Septoria nodorum; [4]) of the same molecule?
Answer: 99%

Question: And the “Test D disease control rating” value (Alternaria solani; [4])?
Answer: 100%

Question: And the “Test G disease control rating” value (Septoria tritici; [4])?
Answer: 98%

Question: What about the “Test C disease control rating” value (Botrytis cinerea; [4]) of the same molecule?
Answer: 100%

Question: How did the “Test I disease control rating” value [1, 4] turn out when `Cc1nc(Cl)c(-c2c(F)cc(F)cc2F)n1-c1ccc(OC(F)F)cc1` [compound 610] was run?
Answer: 100%

Question: And the “Test J disease control rating” value [2, 4]?
Answer: 100%

Question: And the “Test H disease control rating” value [3, 4]?
Answer: 100%

Question: What about the “Test F disease control rating” value (Septoria nodorum; [4]) of the same molecule?
Answer: 99%

Question: What about the “Test D disease control rating” value (Alternaria solani; [4]) of the same molecule?
Answer: 100%

Question: And the “Test G disease control rating” value (Septoria tritici; [4])?
Answer: 99%

Question: What about the “Test C disease control rating” value (Botrytis cinerea; [4]) of the same molecule?
Answer: 99%
